Our source for the inhibition values is ChEMBL document CHEMBL5131383, “Structure-based design, synthesis, and evaluation of inhibitors with high selectivity for PARP-1 over PARP-2” (Eur J Med Chem, 2022).

A word on the inhibition: it is the change of the read-out against control, counted positive when it falls.

Test [1] concerns the target Poly [ADP-ribose] polymerase 1 (Homo sapiens, UniProt P09874). The test is described as follows: Inhibition of human PARP1 using NAD+ as substrate at 5 nM incubated for 1 hr by ELISA relative to control. (An ELISA detects its analyte on a solid surface through an enzyme-linked reagent.)
Test [2] has as its target Poly [ADP-ribose] polymerase 2 (Homo sapiens, UniProt Q9UGN5). The test is described as follows: Inhibition of human PARP2 using NAD+ as substrate at 5 nM incubated for 1 hr by ELISA relative to control.

Poly [ADP-ribose] polymerase 2, sequence (Q9UGN5 whole entry): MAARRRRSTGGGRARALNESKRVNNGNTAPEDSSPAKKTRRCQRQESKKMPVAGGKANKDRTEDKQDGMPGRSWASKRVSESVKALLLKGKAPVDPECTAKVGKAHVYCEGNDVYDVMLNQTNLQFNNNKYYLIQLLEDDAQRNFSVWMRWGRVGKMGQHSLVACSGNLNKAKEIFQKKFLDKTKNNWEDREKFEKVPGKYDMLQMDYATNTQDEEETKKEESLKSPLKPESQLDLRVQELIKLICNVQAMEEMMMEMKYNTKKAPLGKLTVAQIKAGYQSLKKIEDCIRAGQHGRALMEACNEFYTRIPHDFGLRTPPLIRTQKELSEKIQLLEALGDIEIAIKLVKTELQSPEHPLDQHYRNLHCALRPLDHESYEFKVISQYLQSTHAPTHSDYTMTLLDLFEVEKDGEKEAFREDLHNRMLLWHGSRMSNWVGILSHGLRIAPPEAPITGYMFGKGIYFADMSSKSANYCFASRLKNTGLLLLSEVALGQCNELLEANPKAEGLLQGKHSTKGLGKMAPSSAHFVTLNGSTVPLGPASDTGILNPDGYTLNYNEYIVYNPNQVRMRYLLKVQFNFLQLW
Poly [ADP-ribose] polymerase 1, sequence (P09874 whole entry): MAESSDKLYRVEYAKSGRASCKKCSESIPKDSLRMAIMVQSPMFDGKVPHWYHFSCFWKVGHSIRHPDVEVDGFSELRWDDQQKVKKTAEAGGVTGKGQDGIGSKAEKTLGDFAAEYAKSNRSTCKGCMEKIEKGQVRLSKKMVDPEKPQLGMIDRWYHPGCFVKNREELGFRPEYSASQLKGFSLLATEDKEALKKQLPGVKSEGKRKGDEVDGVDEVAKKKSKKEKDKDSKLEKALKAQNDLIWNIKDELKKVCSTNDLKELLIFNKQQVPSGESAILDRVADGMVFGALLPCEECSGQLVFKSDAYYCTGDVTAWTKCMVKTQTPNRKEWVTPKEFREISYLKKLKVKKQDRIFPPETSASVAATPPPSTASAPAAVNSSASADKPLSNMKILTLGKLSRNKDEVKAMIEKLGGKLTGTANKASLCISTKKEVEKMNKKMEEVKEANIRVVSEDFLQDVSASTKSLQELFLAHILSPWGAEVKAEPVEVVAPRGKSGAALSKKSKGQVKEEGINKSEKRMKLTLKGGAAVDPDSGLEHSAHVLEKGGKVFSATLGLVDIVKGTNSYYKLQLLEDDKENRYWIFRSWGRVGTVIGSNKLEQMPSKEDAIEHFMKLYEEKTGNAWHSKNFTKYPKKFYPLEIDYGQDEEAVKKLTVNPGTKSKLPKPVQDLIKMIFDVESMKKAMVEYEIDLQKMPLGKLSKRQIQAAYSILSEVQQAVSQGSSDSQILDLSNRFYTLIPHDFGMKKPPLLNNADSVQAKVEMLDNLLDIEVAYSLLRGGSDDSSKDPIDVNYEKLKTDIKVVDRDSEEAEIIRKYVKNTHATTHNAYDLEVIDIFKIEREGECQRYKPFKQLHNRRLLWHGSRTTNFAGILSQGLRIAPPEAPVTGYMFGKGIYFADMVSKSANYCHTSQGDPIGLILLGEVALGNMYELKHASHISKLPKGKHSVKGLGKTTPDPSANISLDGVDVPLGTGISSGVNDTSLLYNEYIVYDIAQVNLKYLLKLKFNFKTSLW

Take `O=C1NCCc2c(-c3ccc(CN4CCn5c(nnc5C(F)(F)F)C4)cc3)[nH]c3cc(F)cc1c23`: the inhibition in test [1] worked out at 69.1%; in test [2], 23.5%.

Regarding `O=C(O)c1ccc(-c2[nH]c3cc(F)cc4c3c2CCNC4=O)cc1`, the inhibition in test [1] was 43.2%; in test [2], 48.1%.

For the compound `COc1cccc(-c2[nH]c3cc(F)cc4c3c2CCNC4=O)c1`, the results for the inhibition in test [1] and in test [2] were 72% and 35.9%, respectively.

For the compound `O=C1NCCc2c(-c3cccc(CN4CCC(F)(F)CC4)c3)[nH]c3cc(F)cc1c23`, the results for the inhibition in test [1] and in test [2] were 38.4% and 24.3%, respectively.

As to `CC(C)(C)OC(=O)NC1CCN(Cc2cccc(-c3[nH]c4cc(F)cc5c4c3CCNC5=O)c2)CC1`, the inhibition came to 76.5% in test [1] and 40.7% in test [2].

Regarding `Cc1ccc(-c2[nH]c3cc(F)cc4c3c2CCNC4=O)cc1[N+](=O)[O-]`, the inhibition came to 93.2% in test [1] and 54.6% in test [2].

Take `CC1(NC(=O)OC(C)(C)C)CCN(Cc2ccc(-c3[nH]c4cc(F)cc5c4c3CCNC5=O)cc2)CC1`: the inhibition in test [1] stood at 87%; in test [2] it was 40.5%.

With `CC(C)(C)OC(=O)NC1CCCN(Cc2ccc(-c3[nH]c4cc(F)cc5c4c3CCNC5=O)cc2)C1` (stereo not given), the inhibition in test [1] was determined as 90.1%; in test [2] it was 34.8%.

As for `COC(=O)c1ccc(-c2[nH]c3cc(F)cc4c3c2CCNC4=O)cc1`, the inhibition in test [1] was determined as 83.3%; in test [2], 50.1%.

Take `O=C(O)c1cccc(-c2[nH]c3cc(F)cc4c3c2CCNC4=O)c1`: the inhibition was found to be 44.9% in test [1] and 43.3% in test [2].

For `O=Cc1ccc(-c2[nH]c3cc(F)cc4c3c2CCNC4=O)cc1`, the inhibition in test [1] was determined as 93.6%; in test [2], 57.8%.

`Nc1ccc(-c2[nH]c3cc(F)cc4c3c2CCNC4=O)cc1`: the inhibition in test [1] was found to be 84.5%; in test [2] it was 46%.

Regarding `O=C1NCCc2c(-c3ccc(CN4CCN(c5cccc(C(F)(F)F)c5)CC4)cc3)[nH]c3cc(F)cc1c23`, the figures for the inhibition in test [1] and in test [2] were 22.1% and 17.3%, respectively.

In the case of `CC1(NC(=O)OC(C)(C)C)CCN(Cc2cccc(-c3[nH]c4cc(F)cc5c4c3CCNC5=O)c2)CC1`, the inhibition in test [1] is 59.7%; in test [2], 41.8%.

For the compound `O=C1NCCc2c(-c3cccc(CN4CCn5c(nnc5C(F)(F)F)C4)c3)[nH]c3cc(F)cc1c23`, the inhibition was 48.4% in test [1] and 24.4% in test [2].

On to `O=C1NCCc2c(-c3ccc(CN4CCN(C(c5ccccc5)c5ccccc5)CC4)cc3)[nH]c3cc(F)cc1c23`, for which the values for the inhibition in test [1] and in test [2] were 26.5% and 36.8%, respectively.

Regarding `CC(C)(C)OC(=O)N1CCN(Cc2ccc(-c3[nH]c4cc(F)cc5c4c3CCNC5=O)cc2)CC1`, the figures for the inhibition in test [1] and in test [2] were 74.2% and 33.8%, respectively.

As for `CC(C)(C)OC(=O)NC1CCCN(Cc2cccc(-c3[nH]c4cc(F)cc5c4c3CCNC5=O)c2)C1` (stereo not given), the inhibition in test [1] is 55.6%; in test [2], 43.2%.

As for `C[C@@H]1CN(Cc2ccc(-c3[nH]c4cc(F)cc5c4c3CCNC5=O)cc2)CCN1C(=O)OC(C)(C)C`, the inhibition in test [1] amounted to 31.2%; in test [2], 20.3%.

With `CC(C)N1CCN(Cc2cccc(-c3[nH]c4cc(F)cc5c4c3CCNC5=O)c2)CC1`, the inhibition in test [1] is 56.6%; in test [2], 29%.

Take `O=C1NCCc2c(-c3ccc(CN4CCC(F)(F)CC4)cc3)[nH]c3cc(F)cc1c23`: the inhibition amounted to 68.8% in test [1] and 18% in test [2].

For `Nc1cccc(-c2[nH]c3cc(F)cc4c3c2CCNC4=O)c1`, the inhibition was 76.3% in test [1] and 58.9% in test [2].

Consider `NC1CCCN(Cc2cccc(-c3[nH]c4cc(F)cc5c4c3CCNC5=O)c2)C1` (stereo not given), for which the results for the inhibition in test [1] and in test [2] were 64.8% and 13.1%, respectively.

As to `CC(=O)N1CCN(Cc2cccc(-c3[nH]c4cc(F)cc5c4c3CCNC5=O)c2)CC1`, the inhibition in test [1] turned out to be 49.8%; in test [2], 30.4%.

Consider `CN1CCN(Cc2ccc(-c3[nH]c4cc(F)cc5c4c3CCNC5=O)cc2)CC1`, for which the results for the inhibition in test [1] and in test [2] were 83.1% and 42%, respectively.

Consider `CC1(N)CCN(Cc2cccc(-c3[nH]c4cc(F)cc5c4c3CCNC5=O)c2)CC1`, for which the inhibition in test [1] amounted to 79.2%; in test [2], 21.3%.

As to `N#Cc1ccc(-c2[nH]c3cc(F)cc4c3c2CCNC4=O)cc1`, the inhibition was 94.1% in test [1] and 53.4% in test [2].

As to `CC(C)(C)c1ccc(-c2[nH]c3cc(F)cc4c3c2CCNC4=O)cc1`, the inhibition in test [1] came to 56.2%; in test [2], 42.3%.

As to `O=C1NCCc2c(-c3ccc(B(O)O)cc3)[nH]c3cc(F)cc1c23`, the inhibition in test [1] is 67.4%; in test [2] it was 42.7%.

On to `CN1CCN(Cc2cccc(-c3[nH]c4cc(F)cc5c4c3CCNC5=O)c2)CC1`, for which the inhibition in test [1] worked out at 61.2%; in test [2], 29%.

With `O=C1NCCc2c(-c3ccc(CN4CCCC(F)(F)C4)cc3)[nH]c3cc(F)cc1c23`, the inhibition came out at 69.3% in test [1] and 20.5% in test [2].

Take `CC(C)N1CCN(Cc2ccc(-c3[nH]c4cc(F)cc5c4c3CCNC5=O)cc2)CC1`: the inhibition in test [1] came to 83.9%; in test [2], 36.5%.

As to `O=C1NCCc2c(-c3ccc(N4CCNCC4)cc3)[nH]c3cc(F)cc1c23`, the inhibition was 83.9% in test [1] and 55.8% in test [2].

Take `CC1(N)CCN(Cc2ccc(-c3[nH]c4cc(F)cc5c4c3CCNC5=O)cc2)CC1`: the figures for the inhibition in test [1] and in test [2] were 89.9% and 45.2%, respectively.

As to `NC1CCCN(Cc2ccc(-c3[nH]c4cc(F)cc5c4c3CCNC5=O)cc2)C1` (stereo not given), the inhibition in test [1] is 87.9%; in test [2] it was 33.5%.

As to `C[C@@H]1CN(Cc2cccc(-c3[nH]c4cc(F)cc5c4c3CCNC5=O)c2)CCN1`, the values for the inhibition in test [1] and in test [2] were 78.3% and 50.2%, respectively.

For `O=C1NCCc2c(-c3cccc(CN4CCN(C(=O)C5CC5)CC4)c3)[nH]c3cc(F)cc1c23`, the inhibition in test [1] came to 46.1%; in test [2], 20.7%.

Turning to `C[C@@H]1CN(Cc2cccc(-c3[nH]c4cc(F)cc5c4c3CCNC5=O)c2)CCN1C(=O)OC(C)(C)C`, the inhibition in test [1] was determined as 16.3%; in test [2], 49.4%.

Consider `COc1ccc(-c2[nH]c3cc(F)cc4c3c2CCNC4=O)cc1`, for which the inhibition is 82.8% in test [1] and 49.4% in test [2].

Take `O=C1NCCc2c(-c3ccc(OCc4ccccc4)cc3)[nH]c3cc(F)cc1c23`: the inhibition was found to be 50.6% in test [1] and 36.4% in test [2].

Regarding `CCOC(=O)C1CCCN(Cc2ccc(-c3[nH]c4cc(F)cc5c4c3CCNC5=O)cc2)C1` (stereo not given), the inhibition in test [1] turned out to be 86.5%; in test [2], 36.3%.

In the case of `Cc1cc(N2CCN(Cc3ccc(-c4[nH]c5cc(F)cc6c5c4CCNC6=O)cc3)CC2)n(-c2ccccc2)n1`, the results for the inhibition in test [1] and in test [2] were 47.2% and 29.7%, respectively.

With `O=C1NCCc2c(-c3ccc(N4CCOCC4)cc3)[nH]c3cc(F)cc1c23`, the inhibition was 88.9% in test [1] and 54.2% in test [2].

`O=C1NCCc2c(-c3ccc([N+](=O)[O-])cc3)[nH]c3cc(F)cc1c23`: the inhibition in test [1] is 88.7%; in test [2], 55.5%.

In the case of `O=C1NCCc2c(-c3ccc(CN4CCN(C(=O)C5CC5)CC4)cc3)[nH]c3cc(F)cc1c23`, the figures for the inhibition in test [1] and in test [2] were 85% and 44.1%, respectively.
